ChEMBL document CHEMBL5537118, “Synthesis of cinnamoyl tethered indoline derivatives with anti-inflammatory and antioxidant activities” (Eur J Med Chem, 2024)
Active and inactive are the calls of the source. The rule behind the calls is not given here.

What was measured:
[1] = Cytotoxicity against mouse RAW264.7 cells assessed as cell viability at 2 to 10 uM measured after 24 hrs; format: toxicity, cell-based; conditions: dose 2-10 µM, read-out: Activity
[2] = system: RAW264.7; experiment: Antiinflammatory activity in LPS-induced mouse RAW264.7 cells assessed as inhibition of NO production at 2 to 10 uM pretreated for 1 hr followed by LPS addition and measured after 24 hrs by griess reagent based assay; format: functional, cell-based; conditions: dose 2-10 µM, time 25.0 hrs
[3] = system: RAW264.7; experiment: Antioxidant activity in H2O2-stimulated mouse RAW264.7 cells assessed as protection against cell damage at 2 to 5 uM pretreated for 30 mins followed by H2O2 stimulation and measured after 4 hrs by MTT assay; format: functional, cell-based; conditions: dose 2-5 µM, time 4.5 hrs
[4] = system: RAW264.7; experiment: Antiinflammatory activity in LPS-induced mouse RAW264.7 cells assessed as inhibition of NO production pretreated for 1 hr followed by LPS addition and measured after 24 hrs by griess reagent based assay; format: functional, cell-based
[5] = system: Mus musculus; experiment: Antiinflammatory activity in carrageenan-induced Kunming mouse model of paw edema assessed as paw volume at 30 mg/kg, IG pretreated for 1 hr followed by carrageenan administration and measured after 5 hrs by digital plethysmometer (reference value: 0.353 +/- 0.024 mL); format: functional; conditions: time 6 hrs
[6] = system: Mus musculus; experiment: Antiinflammatory activity in carrageenan-induced Kunming mouse model of paw edema assessed as paw volume at 30 mg/kg, IG pretreated for 1 hr followed by carrageenan administration and measured after 1 hr by digital plethysmometer (reference value: 0.407 +/- 0.023 mL); format: functional; conditions: time 2 hrs
[7] = system: Mus musculus; experiment: Antiinflammatory activity in carrageenan-induced Kunming mouse model of paw edema assessed as edema inhibition at 30 mg/kg, IG pretreated for 1 hr followed by carrageenan administration and measured after 5 hrs relative to control; format: functional; conditions: po, time 6 hrs
[8] = system: Mus musculus; experiment: Antiinflammatory activity in carrageenan-induced Kunming mouse model of paw edema assessed as paw volume at 30 mg/kg, ip pretreated for 1 hr followed by carrageenan administration and measured after 1 hr by digital plethysmometer (reference value: 0.395 +/- 0.017 mL); format: functional; conditions: time 2 hrs
[9] = system: Mus musculus; experiment: Antiinflammatory activity in carrageenan-induced Kunming mouse model of paw edema assessed as edema inhibition at 30 mg/kg, IG pretreated for 1 hr followed by carrageenan administration and measured after 3 hrs relative to control; format: functional; conditions: po, time 4 hrs
[10] = system: Mus musculus; experiment: Antiinflammatory activity in carrageenan-induced Kunming mouse model of paw edema assessed as edema inhibition at 30 mg/kg, IG pretreated for 1 hr followed by carrageenan administration and measured after 1 hr relative to control; format: functional; conditions: po, time 2 hrs
[11] = system: Mus musculus; experiment: Antiinflammatory activity in carrageenan-induced Kunming mouse model of paw edema assessed as paw volume at 30 mg/kg, IG pretreated for 1 hr followed by carrageenan administration and measured immediately by digital plethysmometer (reference value: 0.144 +/- 0.026 mL); format: functional
[12] = system: Mus musculus; experiment: Antiinflammatory activity in carrageenan-induced Kunming mouse model of paw edema assessed as paw volume at 30 mg/kg, IG pretreated for 1 hr followed by carrageenan administration and measured after 3 hrs by digital plethysmometer (reference value: 0.365 +/- 0.044 mL); format: functional; conditions: time 4 hrs
[13] = system: Mus musculus; experiment: Antiinflammatory activity in carrageenan-induced Kunming mouse model of paw edema assessed as edema inhibition at 30 mg/kg, ip pretreated for 1 hr followed by carrageenan administration and measured after 5 hrs relative to control; format: functional; conditions: time 6 hrs
[14] = system: Mus musculus; experiment: Antiinflammatory activity in carrageenan-induced Kunming mouse model of paw edema assessed as edema inhibition at 30 mg/kg, ip pretreated for 1 hr followed by carrageenan administration and measured after 3 hrs relative to control; format: functional; conditions: time 4 hrs
[15] = system: Mus musculus; experiment: Antiinflammatory activity in carrageenan-induced Kunming mouse model of paw edema assessed as paw volume at 30 mg/kg, ip pretreated for 1 hr followed by carrageenan administration and measured after 5 hrs by digital plethysmometer (reference value: 0.362 +/- 0.016 mL); format: functional; conditions: time 6 hrs
[16] = system: Mus musculus; experiment: Antiinflammatory activity in carrageenan-induced Kunming mouse model of paw edema assessed as paw volume at 30 mg/kg, ip pretreated for 1 hr followed by carrageenan administration and measured after 3 hrs by digital plethysmometer (reference value: 0.377 +/- 0.018 mL); format: functional; conditions: time 4 hrs
[17] = system: Mus musculus; experiment: Antiinflammatory activity in carrageenan-induced Kunming mouse model of paw edema assessed as paw volume at 30 mg/kg, ip pretreated for 1 hr followed by carrageenan administration and measured immediately by digital plethysmometer (reference value: 0.116 +/- 0.042 mL); format: functional
[18] = system: Mus musculus; experiment: Antiinflammatory activity in carrageenan-induced Kunming mouse model of paw edema assessed as edema inhibition at 30 mg/kg, ip pretreated for 1 hr followed by carrageenan administration and measured after 1 hr relative to control; format: functional; conditions: time 2 hrs

SMILES | viability at 24 h, 10 µM [1] | Activity [2] | Activity [3] | also measured
COc1ccc2c(c1)CCN2CCCNC(=O)/C=C/c1ccc(O)c(OC)c1 | > 85% | – | – | –
O=C(/C=C/c1ccccc1)NCCCN1CCc2ccccc21 | > 85% | – | – | –
O=C(/C=C/c1cccc(O)c1)NCCCN1CCc2ccccc21 | > 85% | inactive | – | –
O=C(/C=C/c1ccc(O)c([N+](=O)[O-])c1)NCCCN1CCc2ccccc21 | > 85% | – | – | –
COc1ccc2c(c1)CCN2CCCNC(=O)/C=C/c1cc(OC)c(O)c(OC)c1 | > 85% | – | – | –
COc1cc(/C=C/C(=O)NCCCN2CCc3cc(Cl)ccc32)cc(OC)c1O | > 85% | – | – | –
O=C(/C=C/c1ccc(O)c(Cl)c1)NCCCN1CCc2cc(Cl)ccc21 | > 85% | Active | Active | IC50 [4]: 3.65 µM
COc1ccc2c(c1)CCN2CCCNC(=O)/C=C/c1ccc(O)c(O)c1 | > 85% | Active | Active | IC50 [4]: 2.07 µM
O=C(/C=C/c1ccccc1)NCCCN1CCc2cc(Cl)ccc21 | > 85% | – | – | –
O=C(/C=C/c1cccc(O)c1)NCCCN1CCc2cc(Cl)ccc21 | > 85% | inactive | – | –
COc1ccc2c(c1)CCN2CCCNC(=O)/C=C/c1ccc(O)c([N+](=O)[O-])c1 | > 85% | – | – | –
COc1ccc2c(c1)CCN2CCCNC(=O)/C=C/c1cc(OC)c(OC)c(OC)c1 | > 85% | Active | inactive | IC50 [4]: 4.43 µM
COc1cc(/C=C/C(=O)NCCCN2CCc3ccccc32)cc(OC)c1O | > 85% | – | – | –
COc1ccc2c(c1)CCN2CCCNC(=O)/C=C/c1ccccc1 | > 85% | – | – | –
COc1ccc2c(c1)CCN2CCCNC(=O)/C=C/c1ccc(O)cc1 | > 85% | Active | Active | –
CC(=O)Oc1ccc(/C=C/C(=O)NCCCN2CCc3cc(Cl)ccc32)cc1OC(C)=O | – | – | – | Activity [5]: 0.21 mL; Activity [6]: 0.325 mL; inhibition in vivo at 30 mg/kg [7]: 65.9%; Activity [8]: 0.329 mL; inhibition in vivo at 30 mg/kg [9]: 43.9%; inhibition in vivo at 30 mg/kg [10]: 29.6%; Activity [11]: 0.136 mL; Activity [12]: 0.258 mL; inhibition in vivo at 30 mg/kg [13]: 64%; inhibition in vivo at 30 mg/kg [14]: 56.1%; Activity [15]: 0.209 mL; Activity [16]: 0.24 mL; Activity [17]: 0.142 mL; inhibition in vivo at 30 mg/kg [18]: 24.3%

SMILES | viability at 24 h, 10 µM [1] | Activity [2] | Activity [3] | also measured
COc1cc(/C=C/C(=O)NCCCN2CCc3ccccc32)ccc1O | > 85% | – | – | –
O=C(/C=C/c1ccc(O)cc1)NCCCN1CCc2cc(Cl)ccc21 | > 85% | Active | Active | IC50 [4]: 4.07 µM
COc1cc(/C=C/C(=O)NCCCN2CCc3ccccc32)cc(OC)c1OC | > 85% | Active | inactive | IC50 [4]: 3.9 µM
O=C(/C=C/c1ccc(O)c(O)c1)OCCc1ccccc1 [CAFFEIC ACID PHENETHYL ESTER] | – | – | Active | Activity [5]: 0.257 mL; Activity [6]: 0.342 mL; inhibition in vivo at 30 mg/kg [7]: 44.2%; Activity [8]: 0.29 mL; inhibition in vivo at 30 mg/kg [9]: 29.1%; inhibition in vivo at 30 mg/kg [10]: 23.5%; Activity [11]: 0.125 mL; Activity [12]: 0.294 mL; inhibition in vivo at 30 mg/kg [13]: 69.5%; inhibition in vivo at 30 mg/kg [14]: 54.9%; Activity [15]: 0.196 mL; Activity [16]: 0.243 mL; Activity [17]: 0.128 mL; inhibition in vivo at 30 mg/kg [18]: 38.6%; IC50 [4]: 0.39 µM
O=C(/C=C/c1ccc(O)c(O)c1)NCCCN1CCc2ccccc21 | > 85% | Active | Active | IC50 [4]: 1.9 µM
COc1ccc2c(c1)CCN2CCCNC(=O)/C=C/c1cc(C(C)(C)C)c(O)c(C(C)(C)C)c1 | > 85% | – | – | –
COc1ccc2c(c1)CCN2CCCNC(=O)/C=C/c1ccc(O)c(Cl)c1 | > 85% | Active | Active | –
O=C(/C=C/c1ccc(O)cc1)NCCCN1CCc2ccccc21 | > 85% | Active | Active | –
COc1cc(/C=C/C(=O)NCCCN2CCc3cc(Cl)ccc32)cc(OC)c1OC | > 85% | Active | inactive | IC50 [4]: 3.54 µM
COc1ccc2c(c1)CCN2CCCNC(=O)/C=C/c1cccc(O)c1 | > 85% | inactive | – | –
O=C(/C=C/c1ccc(O)c(Cl)c1)NCCCN1CCc2ccccc21 | > 85% | Active | Active | –
O=C(/C=C/c1ccc(O)c([N+](=O)[O-])c1)NCCCN1CCc2cc(Cl)ccc21 | > 85% | – | – | –
CC(C)(C)c1cc(/C=C/C(=O)NCCCN2CCc3ccccc32)cc(C(C)(C)C)c1O | > 85% | – | – | –
COc1cc(/C=C/C(=O)NCCCN2CCc3cc(Cl)ccc32)ccc1O | > 85% | – | – | IC50 [4]: 5 µM
CC(C)(C)c1cc(/C=C/C(=O)NCCCN2CCc3cc(Cl)ccc32)cc(C(C)(C)C)c1O | > 85% | – | – | –
